US20130102463A1, “Herbicidal Compositions” (BASF SE, priority 2010, published 2013)
“And” between values parts separate entries of the source, which are not always exact repeats. Identical values can stand only once.

Key:
[1] = tested on: fleabane (Erigeron canadiensis, ERICA); experiment: Example 1: herbicidal action; whole plants sprayed with B, PPO inhibitor applied as local leaf treatment, high light; type: in vivo, Erigeron canadensis
[2] = tested on: moringglory (Pharbitis purpurea, PHBPU); experiment: as above; type: in vivo
[3] = tested on: fleabane (Erigeron canadiensis, ERICA); experiment: Example 2: herbicidal action; whole plants sprayed with A and B in the spraying chamber, high light; type: in vivo, Erigeron canadensis
[4] = tested on: velvet leave (Abutilon theophrasti, ABUTH); experiment: as above; type: in vivo
[5] = tested on: morningglory (Pharbitis purpurea, PHBPU); experiment: as above; type: in vivo
[6] = tested on: fleabane (Erigeron canadiensis); experiment: Example 3: herbicidal action; whole plants sprayed with B, component A applied as local leaf treatment, high light; type: in vivo, Erigeron canadensis; details: ERICA
[7] = walk-in chamber, 4 DAT, rate 0.125 g/ha (A alone)
[8] = walk-in chamber, 14 DAT, rate 0.125 g/ha (A alone)
[9] = growth chamber, 4 DAT, rate 0.250 g/ha (A alone)
[10] = growth chamber, 4 DAT, rate 0.500 g/ha (A alone)
[11] = growth chamber, 14 DAT, rate 0.250 g/ha (A alone)
[12] = growth chamber, 14 DAT, rate 0.500 g/ha (A alone)
[13] = walk-in chamber, 4 DAT, rate 20 g/ha (A alone)
[14] = walk-in chamber, 14 DAT, rate 20 g/ha (A alone)
[15] = 11 DAT, rate 500 g/ha (B alone)
[16] = 10 DAT, rate 1000 g/ha (B alone)
[17] = 42 DAT, rate 1000 g/ha (B alone)
[18] = 4 DAT, rate 2000 g/ha (B alone)
[19] = 10 DAT, rate 2000 g/ha (B alone)
[20] = 5 DAT, rate 1000 g/ha (B alone)
[21] = 11 DAT, rate 1000 g/ha (B alone)

For `CC(C)N(C)S(=O)(=O)NC(=O)c1cc(-n2c(=O)cc(C(F)(F)F)n(C)c2=O)c(F)cc1Cl` [A.1.1, saflufenacil], the “% damage” value ([1]; 7 DAT, rate 60 g/ha (A alone)) was 10%, the “% damage” value ([1]; 10 DAT, rate 60 g/ha (A alone)) was 56% and the “% damage” value ([1]; 11 DAT, rate 60 g/ha (A alone)) was 10% and 18% and 19%. For the same compound, the “% damage” value ([1]; 42 DAT, rate 60 g/ha (A alone)) was 45%, the “% damage” value ([2]; 4 DAT, rate 60 g/ha (A alone)) was 28% and the “% damage” value ([2]; 10 DAT, rate 60 g/ha (A alone)) was 35%. The “% damage” value ([3]; walk-in chamber, 1 DAT, rate 0.125 g/ha (A alone)) was 38%, the “% damage” value ([3]; walk-in chamber, 1 DAT, rate 0.250 g/ha (A alone)) was 70% and the “% damage” value ([3]; walk-in chamber, 1 DAT, rate 0.350 g/ha (A alone)) was 65%. For the same compound, the “% damage” value [3, 7] was 38%, the “% damage” value ([3]; walk-in chamber, 4 DAT, rate 0.250 g/ha (A alone)) was 83% and the “% damage” value ([3]; walk-in chamber, 4 DAT, rate 0.350 g/ha (A alone)) was 90%. The “% damage” value [3, 8] was 18%, the “% damage” value ([3]; walk-in chamber, 14 DAT, rate 0.250 g/ha (A alone)) was 67% and the “% damage” value ([3]; walk-in chamber, 14 DAT, rate 0.350 g/ha (A alone)) was 75%. For the same compound, the “% damage” value [4, 9] was 67%, the “% damage” value [4, 10] was 96% and the “% damage” value [4, 11] was 35%. The “% damage” value [4, 12] was 83%, the “% damage” value [5, 9] was 95% and the “% damage” value [5, 10] was 98%. For the same compound, the “% damage” value [5, 11] was 85%, the “% damage” value [5, 12] was 93% and the “% damage” value ([6]; 2 DAT, rate 60 g/ha (A alone)) was 55%. For the same compound, the “% damage” value ([6]; 8 DAT, rate 60 g/ha (A alone)) was 34%.

In the case of `CCOC(=O)COc1ncccc1Oc1cc(-n2c(=O)cc(C(F)(F)F)n(C)c2=O)c(F)cc1Cl` [A.1.2, ethyl[3-[2-chloro-4-fluoro-5-(1-methyl-6-trifluoromethyl-2,4-dioxo-1,2,3,4-tetrahydropyrimidin-3-yl)phenoxy]-2-pyridyloxy]acetate], the “% damage” value ([3]; walk-in chamber, 4 DAT, rate 10 g/ha (A alone)) is reported as 95%, the “% damage” value ([3]; walk-in chamber, 14 DAT, rate 10 g/ha (A alone)) is reported as 80% and the “% damage” value ([5]; walk-in chamber, 4 DAT, rate 0.5 g/ha (A alone)) is reported as 99%. The “% damage” value ([5]; walk-in chamber, 14 DAT, rate 0.5 g/ha (A alone)) was 96%.

For `CCOC(=O)C(Cl)Cc1cc(-n2nc(C)n(C(F)F)c2=O)c(F)cc1Cl` (centres unmarked) [A.2.1, carfentrazone-ethyl], the “% damage” value ([3]; growth chamber, 4 DAT, rate 10 g/ha (A alone)) was 57%, the “% damage” value ([3]; growth chamber, 14 DAT, rate 10 g/ha (A alone)) was 47% and the “% damage” value ([5]; growth chamber, 4 DAT, rate 0.5 g/ha (A alone)) was 94%. For the same compound, the “% damage” value ([5]; growth chamber, 14 DAT, rate 0.5 g/ha (A alone)) was 83%.

With `CCOc1cc(Oc2ccc(C(F)(F)F)cc2Cl)ccc1[N+](=O)[O-]` [A.4.1, oxyfluorofen] the “% damage” value [4, 13] was 93%, the “% damage” value [4, 14] was 80% and the “% damage” value ([5]; walk-in chamber, 4 DAT, rate 5 g/ha (A alone)) was 94%. For the same compound, the “% damage” value [5, 13] was 99%, the “% damage” value ([5]; walk-in chamber, 14 DAT, rate 5 g/ha (A alone)) was 83% and the “% damage” value [5, 14] was 95%.

For `C#CCN1C(=O)COc2cc(F)c(-n3c(=O)n(C)c(=S)n(C)c3=O)cc21` [A.5.1, 3-[7-fluoro-3-oxo-4-(prop-2-ynyl)-3,4-dihydro-2H-benzo[1,4]oxazin-6-yl]-1,5-dimethyl-6-thioxo-[1,3,5]triazinan-2,4-dione], the “% damage” value ([4]; walk-in chamber, 4 DAT, rate 1 g/ha (A alone)) was 94%, the “% damage” value ([4]; walk-in chamber, 14 DAT, rate 1 g/ha (A alone)) was 55% and the “% damage” value [5, 7] was 92%. For the same compound, the “% damage” value [5, 8] was 70%.

In the case of `C#CCN1C(=O)COc2cc(F)c(N3C(=O)C4=C(CCCC4)C3=O)cc21` [A.5.2, flumioxazin], the “% damage” value ([4]; growth chamber, 4 DAT, rate 2 g/ha (A alone)) is reported as 98% and the “% damage” value ([4]; growth chamber, 14 DAT, rate 2 g/ha (A alone)) is reported as 98%.

With `CC(C)(C)CC(C)(C)c1cc(Cc2cc(C(C)(C)CC(C)(C)C)cc(-n3nc4ccccc4n3)c2O)c(O)c(-n2nc3ccccc3n2)c1` [B.1.1.1, 2,2-methylenbis-6-(benzotriazol-2-yl)-4-tert-octylphenol] the “% damage” value ([6]; 2 DAT, rate 500 g/ha (B alone)) was 0% and the “% damage” value ([6]; 8 DAT, rate 500 g/ha (B alone)) was 0%.

`CCCCN1C(=O)c2cc3nn(-c4cc(C(C)(C)CC(C)(C)C)cc(C(C)(C)c5ccccc5)c4O)nc3cc2C1=O` [B.1.1.2] was tested, and the “% damage” value ([6]; 2 DAT, rate 500 g/ha (B alone)) was 0% and the “% damage” value ([6]; 8 DAT, rate 500 g/ha (B alone)) was 0%.

With `CCCCC(CC)COC(=O)C(C#N)=C(c1ccccc1)c1ccccc1` (centres unmarked) [B.1.2.2, 2-cyano-3,3-diphenylacrylic acid-2′-ethylhexyl ester] the “% damage” value ([1]; 7 DAT, rate 500 g/ha (B alone)) was 10% and the “% damage” value [1, 15] was 10%.

`CCCCC(CC)COC(=O)C=Cc1ccc(OC)cc1` (centres unmarked) [B.1.5.1, 2-ethylhexyl 4-methoxycinnamate] was tested, and the “% damage” value ([6]; 2 DAT, rate 500 g/ha (B alone)) was 0% and the “% damage” value ([6]; 8 DAT, rate 500 g/ha (B alone)) was 0%.

`CCCCCCOC(=O)c1ccccc1C(=O)c1ccc(N(CC)CC)cc1O` [B.1.6.1, 2-(4-diethylamino-2-hydroxybenzoyl)-benzoic acid hexylester] was tested, and the “% damage” value ([1]; 7 DAT, rate 500 g/ha (B alone)) was 0% and the “% damage” value [1, 15] was 0%.

`O=C(c1ccccc1)c1ccc(O)cc1O` [B.1.6.3, 2,4-dihydroxybenzo-phenone] was tested, and the “% damage” value [1, 16] was 13%, the “% damage” value [1, 17] was 0% and the “% damage” value [2, 18] was 39%. For the same compound, the “% damage” value [2, 19] was 20%.

`COc1ccc(C(=O)c2ccccc2)c(O)c1` [B.1.6.4, 2-hydroxy-4-methoxybenzophenone] was tested, and the “% damage” value ([1]; 5 DAT, rate 500 g/ha (B alone)) was 5%, the “% damage” value [1, 16] was 0% and the “% damage” value [1, 15] was 5%. For the same compound, the “% damage” value [1, 17] was 13%, the “% damage” value [2, 18] was 15% and the “% damage” value [2, 19] was 10%. For the same compound, the “% damage” value ([6]; 2 DAT, rate 500 g/ha (B alone)) was 0% and the “% damage” value ([6]; 8 DAT, rate 500 g/ha (B alone)) was 0%.

For `CCN(CC)c1ccc(C(=O)c2ccccc2C(=O)N2CCN(C(=O)c3ccccc3C(=O)c3ccc(N(CC)CC)cc3O)CC2)c(O)c1` [B.1.6.5], the “% damage” value ([6]; 2 DAT, rate 500 g/ha (B alone)) was 0% and the “% damage” value ([6]; 8 DAT, rate 500 g/ha (B alone)) was 0%.

For `COc1cc(O)c(C(=O)c2ccccc2)cc1S(=O)(=O)O` [B.1.7.1, 2-hydroxy-4-methoxy-benzophenone-5-sulfonic acid], the “% damage” value ([6]; 2 DAT, rate 500 g/ha (B alone)) was 0% and the “% damage” value ([6]; 8 DAT, rate 500 g/ha (B alone)) was 0%.

With `CCCCC(CC)COC(=O)c1ccc(Nc2nc(Nc3ccc(C(=O)OCC(CC)CCCC)cc3)nc(Nc3ccc(C(=O)OCC(CC)CCCC)cc3)n2)cc1` (centres unmarked) [B.1.11.1, 2,4,6-trinanilino-p-(carbo-2′-ethyl-hexyl-1′-oxy)-1,3,5-triazine] the “% damage” value ([6]; 2 DAT, rate 500 g/ha (B alone)) was 0% and the “% damage” value ([6]; 8 DAT, rate 500 g/ha (B alone)) was 0%.

In the case of `CNC(=O)c1ccc(Nc2nc(NC)nc(Nc3ccc(/C=C/c4ccc(Nc5nc(NC)nc(Nc6ccc(C(=O)NC)cc6)n5)cc4S(=O)(=O)[O-])c(S(=O)(=O)[O-])c3)n2)cc1.[Na+].[Na+]` [B.1.16.1], the “% damage” value ([6]; 2 DAT, rate 500 g/ha (B alone)) is reported as 0% and the “% damage” value ([6]; 8 DAT, rate 500 g/ha (B alone)) is reported as 0%.

In the case of `CCOC(=O)C(C#N)=C1C=C(NC(C)CC)CC(C)(C)C1` (centres unmarked) [B.1.17.1, 2-cyano-2-[5,5-dimethyl-3-[(1-methylpropyl)amino]-2-cyclohexen-1-ylidene]-acetic acid ethyl ester], the “% damage” value ([6]; 2 DAT, rate 500 g/ha (B alone)) is reported as 0%, the “% damage” value ([6]; 2 DAT, rate 1000 g/ha (B alone)) is reported as 0% and the “% damage” value ([6]; 8 DAT, rate 500 g/ha (B alone)) is reported as 0%. The “% damage” value ([6]; 8 DAT, rate 1000 g/ha (B alone)) was 0%.

For `CC(C)c1cccc(C(C)C)c1N1C(=O)c2cccc3c(Oc4ccc(C(C)(C)CC(C)(C)C)cc4)ccc(c23)C1=O` [B.1.18.1, 2-[2,6-bis(1-methylethyl)phenyl]-6-[4-(1,1,3,3-tetramethylbutyl)phenoxy]-1H-benz[de]isoquinoline-1,3(2H)-dione], the “% damage” value ([6]; 2 DAT, rate 500 g/ha (B alone)) was 0% and the “% damage” value ([6]; 8 DAT, rate 500 g/ha (B alone)) was 0%.

For `CCCOC(=O)c1cc(O)c(=O)c2c(O)c(O)ccc2c1` [B.1.19.1, 3,4,6-trihydroxy-5-oxo-5H-benzocycloheptene-8-carboxylic acid propyl ester], the “% damage” value ([6]; 2 DAT, rate 250 g/ha (B alone)) was 0%, the “% damage” value ([6]; 2 DAT, rate 500 g/ha (B alone)) was 0% and the “% damage” value ([6]; 8 DAT, rate 250 g/ha (B alone)) was 0%. The “% damage” value ([6]; 8 DAT, rate 500 g/ha (B alone)) was 0%.

`Cc1c(C)c2c(c(C)c1O)CC[C@@](C)(CCC[C@H](C)CCC[C@H](C)CCCC(C)C)O2` [B.3.4.1, α-tocopherol] was tested, and the “% damage” value ([1]; 5 DAT, rate 7000 g/ha (B alone)) was 0% and the “% damage” value ([1]; 11 DAT, rate 7000 g/ha (B alone)) was 0%.

`c1ccc(Nc2ccccc2)cc1` [B.3.19.1, diphenylamine] was tested, and the “% damage” value [1, 20] was 0% and the “% damage” value [1, 21] was 0%.

With `Oc1ccc(C=Cc2cc(O)cc(O)c2)cc1` [B.3.27.1, resveratrol] the “% damage” value [1, 20] was 10% and the “% damage” value [1, 21] was 0%.

In the case of `CC1=CC(=O)CC(C)(C)[C@@]1(O)/C=C/C(C)=C\C(=O)O` [B.3.28.1, abscisic acid], the “% damage” value [1, 20] is reported as 1% and the “% damage” value [1, 21] is reported as 0%.

`CCCOC(=O)c1cc(O)c(O)c(O)c1` [B.3.29.1, n-propylgallate] was tested, and the “% damage” value [1, 20] was 0% and 5% and the “% damage” value [1, 21] was 0% and 8%.
